# Assay results published in the supplement of paper PMC10307832.
# Legend:
# Assay in all cases: relative viability (nuclei count vs DMSO), 5 days (fraction); higher = more cells survive
# [1] = compound: CN(C)C[C@@H]1CCn2cc(c3ccccc32)C2=C(C(=O)NC2=O)c2cn(c3ccccc23)CCO1 [Ruboxistaurin] + CS(=O)(=O)CCNCc1ccc(-c2ccc3ncnc(Nc4ccc(OCc5cccc(F)c5)c(Cl)c4)c3c2)o1 [Lapatinib] (partner 2 µM)
# How it was run: (§1)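 Lung cancer cell lines in 1536-well plates were dosed by pin tool the day after seeding, either with one drug alone or with a fixed anchor-drug dose plus five library-drug doses (not always all listed) in √10 steps. After 5 days, cells were fixed and their nuclei stained in one step (final 0.05% Triton X-100, 1% formaldehyde, 1 ug/ml Hoechst), then counted on 4× images. Relative viability is the nuclei count in treated wells divided by that in vehicle wells. Values are medians of duplicate plates.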
# [2] = compound: CN(C)C[C@@H]1CCn2cc(c3ccccc32)C2=C(C(=O)NC2=O)c2cn(c3ccccc23)CCO1 [Ruboxistaurin] + N=C(N)NC(=N)NCCc1ccccc1 [Phenformin] (partner 250 µM)
# How it was run: as §1
# [3] = compound: CN(C)C[C@@H]1CCn2cc(c3ccccc32)C2=C(C(=O)NC2=O)c2cn(c3ccccc23)CCO1 [Ruboxistaurin] + Nc1nc2[nH]cc(CCc3ccc(C(=O)N[C@@H](CCC(=O)O)C(=O)O)cc3)c2c(=O)[nH]1 [Pemetrexed] (partner 0.2 µM)
# How it was run: as §1
# Ruboxistaurin + Olaparib = compound: CN(C)C[C@@H]1CCn2cc(c3ccccc32)C2=C(C(=O)NC2=O)c2cn(c3ccccc23)CCO1 [Ruboxistaurin] + O=C(c1cc(Cc2n[nH]c(=O)c3ccccc23)ccc1F)N1CCN(C(=O)C2CC2)CC1 [Olaparib] (partner 8 µM)
# How it was run: as §1
# [4] = compound: CN(C)C[C@@H]1CCn2cc(c3ccccc32)C2=C(C(=O)NC2=O)c2cn(c3ccccc23)CCO1 [Ruboxistaurin] + CC(=O)c1c(C)c2cnc(Nc3ccc(N4CCNCC4)cn3)nc2n(C2CCCC2)c1=O [Palbociclib] (partner 0.5 µM)
# How it was run: as §1
Cell Line,relative viability ([1]; first compound 0.08 µM),relative viability ([1]; first compound 0.8 µM),relative viability ([1]; first compound 2.53 µM),relative viability ([1]; first compound 8 µM),relative viability ([2]; first compound 0.08 µM),relative viability ([2]; first compound 0.8 µM),relative viability ([2]; first compound 2.53 µM),relative viability ([2]; first compound 8 µM),relative viability ([3]; first compound 0.08 µM),relative viability ([3]; first compound 0.8 µM),relative viability ([3]; first compound 2.53 µM),relative viability ([3]; first compound 8 µM),relative viability (Ruboxistaurin + Olaparib; first compound 0.08 µM),relative viability (Ruboxistaurin + Olaparib; first compound 0.8 µM),relative viability (Ruboxistaurin + Olaparib; first compound 2.53 µM),relative viability (Ruboxistaurin + Olaparib; first compound 8 µM),relative viability ([4]; first compound 0.08 µM),relative viability ([4]; first compound 0.8 µM),relative viability ([4]; first compound 2.53 µM),relative viability ([4]; first compound 8 µM)
HCC-78,0.745,0.717,0.774,0.944,0.691,0.906,0.779,0.739,0.85,0.91,0.828,0.945,0.821,0.762,0.935,0.746,0.509,0.47,0.497,0.501
HCC-366,1.12,0.988,1.02,1.01,0.666,0.572,0.629,0.664,0.181,0.182,0.158,0.209,0.4,0.364,0.372,0.269,0.401,0.354,0.392,0.328
HCC-827,0.243,0.191,0.184,0.165,0.454,0.397,0.427,0.384,0.265,0.252,0.268,0.28,0.655,0.647,0.695,0.624,0.529,0.478,0.621,0.489
HOP-62,0.995,0.978,0.997,1,0.681,0.65,0.704,0.839,0.299,0.241,0.298,0.31,0.499,0.443,0.541,0.611,0.516,0.462,0.471,0.458
IA-LM,0.751,,1.07,0.789,,,,,,,,,0.871,0.836,0.842,0.912,,,,
LC-2-ad,1.1,0.889,1.02,1.02,0.621,0.574,0.615,0.572,0.259,0.284,0.285,0.282,0.711,0.626,0.697,0.752,0.469,0.424,0.45,0.532
LCLC-97TM1,1.1,,1.6,1.05,0.466,0.383,0.475,0.466,0.193,0.172,0.198,0.16,0.355,0.334,0.352,0.341,0.217,0.199,0.235,0.227
LCLC-103H,,,,,0.336,0.285,0.336,0.321,0.47,0.479,0.434,0.608,0.735,0.69,0.729,0.676,0.446,0.49,0.446,0.451
LK-2,1.07,0.866,0.938,0.739,0.476,0.38,0.379,0.225,0.266,0.346,0.309,0.242,0.741,0.687,0.649,0.505,0.768,0.726,0.75,0.74
LOU-NH91,0.785,0.72,0.851,0.698,0.827,0.666,0.722,0.751,0.398,0.405,0.407,0.434,0.926,0.87,0.941,0.949,0.536,0.518,0.52,0.571
LU99A,1.09,0.967,0.94,0.761,0.759,0.625,0.872,0.787,0.159,0.179,0.171,0.203,0.27,0.259,0.253,0.218,0.473,0.388,0.482,0.31
NCI-H441,,,,,0.942,0.886,0.867,0.862,0.254,0.307,0.287,0.278,0.498,0.532,0.643,0.643,0.234,0.174,0.248,0.202
NCI-H522,,,,,0.675,0.605,0.703,0.622,1.06,0.791,1.18,1.02,0.71,0.676,0.637,0.728,1.06,1.06,1.21,1.25
NCI-H596,1.08,0.965,1.04,0.848,0.844,0.77,0.841,0.722,0.542,0.473,0.478,0.444,0.545,0.59,0.692,0.659,,,,
NCI-H727,1.09,0.552,0.804,0.602,0.565,,0.401,0.474,,,,,0.625,0.7,0.722,0.521,0.596,0.688,0.745,0.707
NCI-H1563,1.06,0.945,1.04,0.952,0.67,0.654,0.702,0.693,0.831,0.724,0.987,0.656,,,,,,,,
NCI-H1703,1.08,1.06,1.09,0.678,,,,,,,,,0.447,0.411,0.622,0.305,,,,
NCI-H2342,,,,,0.626,0.585,0.616,0.597,0.793,0.825,0.874,0.817,0.414,0.483,0.511,0.436,0.456,0.53,0.512,0.518
SW 900,,,,,0.71,0.597,0.564,0.55,0.479,0.421,0.489,0.491,0.891,0.829,1.03,0.964,0.598,0.499,0.681,0.553
